Experiments:
EL4-GD2+ cells = experiment: Mixed lymphocyte reaction, 3H-thymidine incorporation, EL4-GD2+ stimulators; assay type: cell-based, mouse; conditions: EL4-GD2+ cells alone
Method: (§1) EL4-GD2^+ cells and control Jurkat cells were treated with 25 μg/ml Mitomycin (Sigma) for 1 hr to arrest their proliferation. After the cells were washed three times with media to remove Mitomycin, they were plated in 96-well plates at 2×10^5 cells/well. Single cell suspensions of splenocytes were obtained from twice immunized (as above) and from vehicle injected control mice. Cells were separated following the protocol of the EASYSEP™ magnet (Stem Cell Tech). […] The T cells were plated at a ratio of 10:1 with Mitomycin-treated EL4 or Jurkat cells. As controls, cultures of T cells alone (no stimulating tumor cells) or T cells treated with ConcanavilinA were used. After 5 days of culture, 0.1μCi/well ^3H-thymidine (Sigma-Aldrich) was added. DNA-incorporated ^3H-thymidine was counted by liquid scintillation, and data are reported as average cpm±sd.

Jurkat cells = experiment: Mixed lymphocyte reaction, 3H-thymidine incorporation, Jurkat stimulators; assay type: cell-based; conditions: Jurkat cells alone
Method: as §1

Water solubility = assay type: physicochemical
Method: The carbohydrates were synthesized as described (Gilbert et al., 2002, J Biol Chem, 277: 327), by modification of the process for phenylthio-GD2 (Tong et al., 2010, Cehm Biol, 17: 183) in which the thio-phenyl analog originally reported was substituted with an p-aminophenyl-(β-D-lactopyranoside (AP-Lac), from Toronto Research Chemicals), for subsequent conjugation to the dendrimer (see below). AP-GD2 was water soluble (>20 mg/ml), and was purified to >99% purity by size-exclusion (Superdex 30 16 mm×85 cm column, GE Health Care). The measured molecular weight of AP-GD2 was 1218 g/mol and corresponded to expected values. Structures were verified by 1D and 2D NMR spectroscopy and mass spectrometry (EI-MS) (see FIGS. 2A and B).

Row | SMILES | 3H-thymidine incorporation of treated stimulator cells (EL4-GD2+ cells) | 3H-thymidine incorporation of treated stimulator cells (Jurkat cells) | solubility (Water solubility)
1 | CO[C@@]12[C@H](COC(N)=O)C3=C(C(=O)C(C)=C(N)C3=O)N1C[C@@H]1N[C@@H]12 [Mitomycin] | 188±4 cpm | 107±5 cpm | –
2 | CC(=O)NC1C(OC2C(CO)OC(OC3C(CO)OC(Oc4ccc(N)cc4)C(O)C3O)C(O)C2OC2(C(=O)O)CC(O)C(NC(C)=O)C([C@H](O)C(CO)OC3(C(=O)O)CC(O)C(NC(C)=O)C([C@H](O)[C@H](O)CO)O3)O2)OC(CO)C(O)C1O (stereo partly drawn) [AP-GD2] | – | – | > 20 mg/mL

— patent US10363305B2, “Anti-ganglioside compound for targeting cancer and generating antibodies” (REALIST PHARMA, INC., priority 2013, dated 2019)
